The values that follow come from ChEMBL document CHEMBL2331527, “New imidazo[1,2-a]pyridines carrying active pharmacophores: synthesis and anticonvulsant studies” (Bioorg Med Chem Lett, 2013).

For data set [1], the system named is Mus musculus. The experiment in a line: Neurotoxicity in ip dosed mouse assessed as minimum effective dose required to induce motor impairment measured after 4 hrs by Rotarod test. It is filed as toxicity, organism-based. The settings on record: in vivo.
Data set [2] concerns Mus musculus. Put plainly: Anticonvulsant activity against maximal electroshock-induced seizures in NMRI mouse assessed as latency period for the onset of clonus at 10 mg/kg, ip measured after 0.5 hrs by maximal electroshock test (reference value: 2.18 +/-0.47 secs). It is filed as functional. Conditions: route intraperitoneal.
The test system of data set [3] is Mus musculus. Put plainly: Neurotoxicity in ip dosed mouse assessed as minimum effective dose required to induce motor impairment measured after 0.5 hrs by Rotarod test. Conditions: in vivo. It is filed as toxicity, organism-based.
Data set [4] concerns Mus musculus. Put plainly: Anticonvulsant activity against subcutaneous pentylenetetrazole-induced seizures in mouse assessed as onset time for tonic seizures at 10 mg/kg, ip measured after 0.5 hrs by pentylene tetrazole test (reference value: 385.5 +/-10.90 secs). Type of data set: functional. The settings on record: route intraperitoneal.
Data set [5] concerns Mus musculus. Put plainly: Anticonvulsant activity against maximal electroshock-induced seizures in NMRI mouse assessed as duration of tonic hindlimb extension at 10 mg/kg, ip measured after 0.5 hrs by maximal electroshock test (reference value: 15.35 +/-0.60%). Type of data set: functional. Conditions: route intraperitoneal.
Data set [6] has as its system Mus musculus. The experiment in a line: Anticonvulsant activity against subcutaneous pentylenetetrazole-induced seizures in mouse assessed as onset time for clonic seizures at 10 mg/kg, ip measured after 0.5 hrs by pentylene tetrazole test (reference value: 59.2 +/-1.11 secs). Type of data set: functional.

Each structure is given as a SMILES string.

Consider `CN1C(=O)CN=C(c2ccccc2)c2cc(Cl)ccc21` [DIAZEPAM], for which the MED entry in the data set with Mus musculus [1] and in the data set with Mus musculus [3] was “Non-toxic” in each case. Moreover, the Time in the data set with Mus musculus [2] worked out at 13.17 s.

As for `Cc1cccn2c(-c3cc(-c4ccc([N+](=O)[O-])cc4)[nH]c(=O)c3C#N)c(-c3ccc(F)cc3)nc12`, the Time in the data set with Mus musculus [4] was 641.5 s; in the data set on Mus musculus [5], 6.61 s; in the data set on Mus musculus [6], 171.8 s; in the data set on Mus musculus [2], 10.88 s. The MED was 100 mg/kg in the data set with Mus musculus [1] and “Non-toxic” with Mus musculus [3].

Consider `Cc1cccn2c(C3CC(c4ccc(Cl)cc4)=NN3)c(-c3ccc(F)cc3)nc12` (centres undefined), for which the Time was 542.2 s in the data set on Mus musculus [4], 7.21 s in the data set with Mus musculus [5], 158.7 s in the data set with Mus musculus [6] and 9.45 s in the data set with Mus musculus [2]. For the same molecule, the MED result with Mus musculus [1] and with Mus musculus [3] was “Non-toxic” in each case.

`Cc1cccn2c(-c3cc(-c4ccc(Cl)cc4)nc(N)n3)c(-c3ccc(F)cc3)nc12`: the Time in the data set on Mus musculus [4] was 480.2 s; in the data set with Mus musculus [5], 9.88 s; in the data set on Mus musculus [6], 109.7 s; with Mus musculus [2], 7.95 s.

`COc1nc(-c2ccccc2)cc(-c2c(-c3ccc(F)cc3)nc3c(C)cccn23)c1C#N`: the Time with Mus musculus [4] was 596 s; in the data set on Mus musculus [5] it was 7.77 s; in the data set on Mus musculus [6] it was 171.5 s; in the data set with Mus musculus [2], 9.9 s. Further, the MED result in the data set on Mus musculus [1] and in the data set with Mus musculus [3] was “Non-toxic” in each case.

Regarding `Cc1cccn2c(-c3cc(-c4ccc([N+](=O)[O-])cc4)nc(N)n3)c(-c3ccc(F)cc3)nc12`, the Time in the data set with Mus musculus [4] came to 435.8 s; with Mus musculus [5] it was 8.67 s; in the data set on Mus musculus [6], 85.33 s; in the data set with Mus musculus [2], 8.8 s.

As to `Cc1ccc(C2=CC(c3c(-c4ccccc4)nc4c(C)cccn34)NC(=S)N2)cc1` (centres undefined), the Time with Mus musculus [4] turned out to be 426.5 s; in the data set on Mus musculus [5] it was 7.45 s; in the data set on Mus musculus [6] it was 79.34 s; with Mus musculus [2], 9.75 s. Also, the MED entry in the data set on Mus musculus [1] and with Mus musculus [3] was “Non-toxic” throughout.

On to `Cc1ccc(-c2cc(-c3c(-c4ccccc4)nc4c(C)cccn34)nc(N)n2)cc1`, for which the Time was 454.7 s in the data set on Mus musculus [4], 8.52 s in the data set with Mus musculus [5], 90.83 s with Mus musculus [6] and 8.72 s in the data set on Mus musculus [2]. Also, the MED result in the data set with Mus musculus [1] and in the data set on Mus musculus [3] was “Non-toxic” each time.

As for `Cc1cccn2c(-c3cc(-c4ccccc4)nc(N)n3)c(-c3ccc(F)cc3)nc12`, the Time with Mus musculus [4] was determined as 469.2 s; in the data set with Mus musculus [5] it was 8.27 s; with Mus musculus [6], 115.7 s; in the data set with Mus musculus [2], 8.11 s. The MED entry in the data set on Mus musculus [1] and with Mus musculus [3] was “Non-toxic” throughout.

For the molecule `Cc1ccc(-c2cc(-c3c(-c4ccc(F)cc4)nc4c(C)cccn34)nc(N)n2)cc1`, the Time in the data set on Mus musculus [4] is given as 593.2 s; in the data set on Mus musculus [5], 8.15 s; in the data set with Mus musculus [6], 171.4 s; with Mus musculus [2], 8.16 s. The MED entry in the data set with Mus musculus [1] and in the data set with Mus musculus [3] was “Non-toxic” each time.

Regarding `COc1nc(-c2ccc([N+](=O)[O-])cc2)cc(-c2c(-c3ccccc3)nc3c(C)cccn23)c1C#N`, the Time is listed as 426.8 s with Mus musculus [4], 8.52 s in the data set on Mus musculus [5], 79.32 s in the data set on Mus musculus [6] and 8.72 s with Mus musculus [2]. In addition, the MED result in the data set with Mus musculus [1] and in the data set with Mus musculus [3] was “Non-toxic” each time.

Regarding `Cc1cccn2c(C3C=C(c4ccc(Cl)cc4)NC(=S)N3)c(-c3ccc(F)cc3)nc12` (centres undefined), the Time in the data set with Mus musculus [4] came out at 435 s; in the data set with Mus musculus [5] it was 7.77 s; in the data set with Mus musculus [6] it was 82.5 s; in the data set on Mus musculus [2], 9.9 s.

In the case of `COc1nc(-c2ccc(C)cc2)cc(-c2c(-c3ccc(F)cc3)nc3c(C)cccn23)c1C#N`, the Time in the data set with Mus musculus [4] is listed as 611.5 s; with Mus musculus [5] it was 9.84 s; with Mus musculus [6] it was 335.3 s; in the data set on Mus musculus [2], 7.94 s. For the same molecule, the MED entry in the data set on Mus musculus [1] and in the data set on Mus musculus [3] was “Non-toxic” each time.

`Cc1cccn2c(C3CC(c4ccc(F)cc4)=NN3)c(-c3ccccc3)nc12` (centres undefined): the Time with Mus musculus [4] worked out at 426.8 s; with Mus musculus [5], 7.15 s; in the data set with Mus musculus [6], 79.32 s; with Mus musculus [2], 9.25 s.

In the case of `Cc1ccc(C2=NNC(c3c(-c4ccccc4)nc4c(C)cccn34)C2)cc1` (centres undefined), the Time in the data set with Mus musculus [4] is reported as 532.5 s; in the data set with Mus musculus [5], 7.22 s; in the data set with Mus musculus [6], 126.7 s; with Mus musculus [2] it was 9.28 s.

`Cc1cccn2c(-c3cc(-c4cccs4)nc(N)n3)c(-c3ccccc3)nc12`: the Time came out at 426.8 s in the data set with Mus musculus [4], 8.71 s with Mus musculus [5], 79.5 s in the data set with Mus musculus [6] and 8.86 s in the data set on Mus musculus [2]. Further, the MED result with Mus musculus [1] and in the data set with Mus musculus [3] was “Non-toxic” in each case.

Turning to `COc1nc(-c2ccc(F)cc2)cc(-c2c(-c3ccccc3)nc3c(C)cccn23)c1C#N`, the Time was determined as 456.7 s with Mus musculus [4], 6.96 s in the data set on Mus musculus [5], 90.87 s with Mus musculus [6] and 10.77 s in the data set on Mus musculus [2]. Moreover, the MED result in the data set with Mus musculus [1] and in the data set with Mus musculus [3] was “Non-toxic” in each case.

As for `Cc1cccn2c(C3C=C(c4ccc(F)cc4)NC(=S)N3)c(-c3ccccc3)nc12` (centres undefined), the Time in the data set with Mus musculus [4] was determined as 454.7 s; with Mus musculus [5] it was 6.87 s; in the data set with Mus musculus [6], 90.83 s; in the data set on Mus musculus [2], 10.91 s. Moreover, the MED entry with Mus musculus [1] and in the data set with Mus musculus [3] was “Non-toxic” in each case.

Regarding `Cc1ccc(-c2nc3c(C)cccn3c2C2CC(c3cccs3)=NN2)cc1` (centres undefined), the Time in the data set with Mus musculus [4] was found to be 530.8 s; with Mus musculus [5], 7.27 s; in the data set with Mus musculus [6] it was 117.7 s; in the data set on Mus musculus [2] it was 9.33 s. The MED result in the data set on Mus musculus [1] and with Mus musculus [3] was “Non-toxic” in each case.

`Cc1cccn2c(C3C=C(c4ccccc4)NC(=S)N3)c(-c3ccc(F)cc3)nc12` (centres undefined): the Time stood at 479.7 s with Mus musculus [4], 8.13 s in the data set with Mus musculus [5], 107 s in the data set with Mus musculus [6] and 8.04 s with Mus musculus [2]. Also, the MED entry in the data set on Mus musculus [1] and with Mus musculus [3] was “Non-toxic” in each case.

As for `Cc1cccn2c(-c3cc(-c4ccc(Cl)cc4)[nH]c(=O)c3C#N)c(-c3ccc(F)cc3)nc12`, the Time is 544.7 s in the data set with Mus musculus [4], 6.54 s in the data set on Mus musculus [5], 129.2 s in the data set on Mus musculus [6] and 10.97 s in the data set with Mus musculus [2]. Moreover, the MED result in the data set with Mus musculus [1] and in the data set on Mus musculus [3] was “Non-toxic” each time.

Turning to `COc1nc(-c2ccc(C)cc2)cc(-c2c(-c3ccccc3)nc3c(C)cccn23)c1C#N`, the Time was found to be 595.7 s with Mus musculus [4], 6.85 s in the data set on Mus musculus [5], 170.7 s in the data set with Mus musculus [6] and 10.9 s with Mus musculus [2]. Also, the MED result in the data set on Mus musculus [1] and with Mus musculus [3] was “Non-toxic” throughout.

For the molecule `Cc1cccn2c(C3CC(c4ccccc4)=NN3)c(-c3ccc(F)cc3)nc12` (centres undefined), the Time in the data set on Mus musculus [4] was 528.2 s; with Mus musculus [5], 6.54 s; in the data set on Mus musculus [6], 149.3 s; in the data set on Mus musculus [2] it was 10.97 s. The MED result in the data set with Mus musculus [1] and in the data set on Mus musculus [3] was “Non-toxic” throughout.

Consider `COc1nc(-c2ccc([N+](=O)[O-])cc2)cc(-c2c(-c3ccc(F)cc3)nc3c(C)cccn23)c1C#N`, for which the Time in the data set with Mus musculus [4] was found to be 469.2 s; in the data set with Mus musculus [5], 7.01 s; in the data set on Mus musculus [6], 115.7 s; in the data set with Mus musculus [2], 9.13 s.
